The record followed here is article PMC9133015 (Nature Communications, 2022).

Several values for one entry are separate records, joined by “and”; a condition that tells them apart may be missing. Equal values may be shown once.

The assay has as its target T1, DYRK2 (Homo sapiens, UniProt Q92630).
T1 construct: purchased Reaction Biology Corporation (assay service)
T1 sequence (Q92630 1-601): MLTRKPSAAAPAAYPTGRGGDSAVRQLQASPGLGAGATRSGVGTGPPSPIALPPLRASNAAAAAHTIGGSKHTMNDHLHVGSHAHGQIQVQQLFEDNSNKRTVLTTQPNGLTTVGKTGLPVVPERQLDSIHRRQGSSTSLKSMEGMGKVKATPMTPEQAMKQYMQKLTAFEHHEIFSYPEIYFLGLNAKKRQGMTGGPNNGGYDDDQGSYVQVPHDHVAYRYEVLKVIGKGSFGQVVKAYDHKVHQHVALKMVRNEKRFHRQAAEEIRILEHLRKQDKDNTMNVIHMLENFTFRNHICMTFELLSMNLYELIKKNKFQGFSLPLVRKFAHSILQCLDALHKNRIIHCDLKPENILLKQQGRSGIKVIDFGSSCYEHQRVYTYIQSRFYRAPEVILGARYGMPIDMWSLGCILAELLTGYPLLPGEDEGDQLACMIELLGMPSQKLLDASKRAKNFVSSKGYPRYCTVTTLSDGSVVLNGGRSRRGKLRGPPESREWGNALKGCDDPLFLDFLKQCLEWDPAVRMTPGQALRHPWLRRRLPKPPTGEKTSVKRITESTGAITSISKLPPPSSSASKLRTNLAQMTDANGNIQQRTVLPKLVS
Kind of assay: DYRKs kinase activity assay (33P-ATP, DYRKtide substrate): DYRK2. Format: biochemical. The settings on record: for IC50: read-out: DYRK2 IC50; for DYRK2 inhibitory activity (in words): structural optimization of lead 12.

[1] abbreviates: DYRK2 kinase, Conc. 0.000508053 µM, duplicate values.
Setting [2] is: DYRK2 kinase, Conc. 0.00152416 µM, duplicate values, read-out: % Inhibition.
Where [3] appears, read: DYRK2 kinase, Conc. 0.00457247 µM, duplicate values.
The mark [4] stands for this setting: DYRK2 kinase, Conc. 0.0137174 µM, duplicate values, read-out: % Inhibition.
The mark [5] stands for this setting: DYRK2 kinase, Conc. 0.0411523 µM, duplicate values, read-out: % Inhibition.
Setting [6] is: DYRK2 kinase, Conc. 0.123457 µM, duplicate values.
Where [7] appears, read: DYRK2 kinase, Conc. 0.123457 µM, duplicate values, read-out: % Inhibition.
Setting [8] is: DYRK2 kinase, Conc. 0.37037 µM, duplicate values, read-out: % Inhibition.
Setting [9] is: DYRK2 kinase, Conc. 1.11111 µM, duplicate values.
Setting [10] is: DYRK2 kinase, Conc. 1.11111 µM, duplicate values, read-out: % Inhibition.
[11] abbreviates: DYRK2 kinase, Conc. 3.33333 µM, duplicate values.
Where [12] appears, read: DYRK2 kinase, Conc. 3.33333 µM, duplicate values, read-out: % Inhibition.
[13] abbreviates: DYRK2 kinase, Conc. 10 µM, duplicate values.
Where [14] appears, read: DYRK2 kinase, Conc. 10 µM, duplicate values, read-out: % Inhibition.
[15] abbreviates: DYRK2 kinase, Conc. 0.00152416 µM, duplicate values.
Where [16] appears, read: DYRK2 kinase, Conc. 0.0137174 µM, duplicate values.
Setting [17] is: DYRK2 kinase, Conc. 0.0411523 µM, duplicate values.
The mark [18] stands for this setting: DYRK2 kinase, Conc. 0.37037 µM, duplicate values.
Setting [19] is: DYRK2 kinase, Conc. 1.66667 µM, duplicate values.

As a reminder, the % Inhibition is the change of the read-out against control, counted positive when it falls. As a reminder, the inhibition is the percentage by which the read-out fell short of the control. The IC50 is the concentration at which inhibition is half-maximal. For the compound `CCN1CCN(C(=O)c2cnc(Nc3ncc(F)c(-c4ccc5ncsc5c4)n3)nc2)CC1` [Compound 22], the IC50 turned out to be 697 nM. Besides, the “% Inhibition” value under setting [1] is recorded as -2.89%. Also, the inhibition at 0.00152416 µM under setting [2] was determined as 0.87%. Under setting [3], the “% Inhibition” value was determined as 2.13% and testing at 0.00457247 µM gave an inhibition of 2.31%. Besides, the inhibition at 0.0137174 µM under setting [4] turned out to be 3.91%. The inhibition at 0.0411523 µM under setting [5] turned out to be 13.2%. In addition, the “% Inhibition” value under setting [6] amounted to 26.76%. The inhibition at 0.123457 µM under setting [7] worked out at 25%. For the same compound, the inhibition at 0.37037 µM under setting [8] was 35.1%. Besides, the “% Inhibition” value under setting [9] is on record as 58.80%. The inhibition at 1.11111 µM under setting [10] is 58.5%. Moreover, the “% Inhibition” value under setting [11] worked out at 75.98%. In addition, the inhibition at 3.33333 µM under setting [12] is 76.2%. For the same compound, under setting [13], the “% Inhibition” value was determined as 87.41%. The inhibition at 10 µM under setting [14] was found to be 87.2%.

`CCN1CCN(C(=O)c2ccc(Nc3ncc(F)c(-c4ccc5nc(C)sc5c4)n3)nc2)CC1` [Compound 23]: the half-maximal inhibitory concentration (IC50) turned out to be 22 nM. Besides, under setting [1], the “% Inhibition” value turned out to be 9.47% and the inhibition at 0.000508053 µM came to 9.2%. Also, the “% Inhibition” value under setting [15] came to 18.47%. The inhibition at 0.00152416 µM under setting [2] amounted to 20.2%. Under setting [3], the “% Inhibition” value is recorded as 32.91% and the inhibition at 0.00457247 µM stood at 32.2%. Moreover, the “% Inhibition” value under setting [16] stood at 41.99%. Moreover, the inhibition at 0.0137174 µM under setting [4] was 41.4%. Moreover, the “% Inhibition” value under setting [17] worked out at 56.16%. Moreover, the inhibition at 0.0411523 µM under setting [5] came out at 55.9%. In addition, the “% Inhibition” value under setting [6] was found to be 70.45%. Further, under setting [7], the inhibition at 0.123457 µM amounted to 70.4%. Further, the inhibition at 0.37037 µM under setting [8] turned out to be 84.9%. The inhibition at 1.11111 µM under setting [10] stood at 92.2%. For the same compound, under setting [12], the inhibition at 3.33333 µM is 95.8%. In addition, the inhibition at 10 µM under setting [14] is 96.2%.

For `Cc1nc2ccc(-c3nc(Nc4ccc(C(=O)N5CCNCC5)cn4)ncc3F)cc2s1.Cl` [Compound 24], the IC50 turned out to be 27 nM. Besides, under setting [1], the “% Inhibition” value is 2.20% and 10.58%. The “% Inhibition” value under setting [15] was 4.62% and 14.25%. Further, under setting [3], the “% Inhibition” value turned out to be 24.52% and the inhibition at 0.00457247 µM amounted to 19.2%. Besides, the “% Inhibition” value under setting [16] came out at 39.86%. For the same compound, under setting [4], the inhibition at 0.0137174 µM came to 35.4%. The “% Inhibition” value under setting [17] came out at 60.50%. Besides, the inhibition at 0.0411523 µM under setting [5] is 61%. Under setting [6], the “% Inhibition” value is reported as 75.45%. Under setting [7], the inhibition at 0.123457 µM came to 73%. Moreover, under setting [18], the “% Inhibition” value was determined as 85.34%. Moreover, the inhibition at 0.37037 µM under setting [8] was determined as 86.1%. Besides, the “% Inhibition” value under setting [9] stood at 90.57%. Further, the inhibition at 1.11111 µM under setting [10] is 92%. Further, the “% Inhibition” value under setting [11] is 94.68%. Also, the inhibition at 3.33333 µM under setting [12] worked out at 95%. The “% Inhibition” value under setting [13] is 98.21%. For the same compound, the inhibition at 10 µM under setting [14] came to 97%.

For `CC(C)N1CCN(C(=O)c2ccc(Nc3ncc(F)c(-c4ccc5nc(N(C)C)sc5c4)n3)nc2)CC1` [Compound 25], the “DYRK2 inhibitory activity (in words)” value is “further improved DYRK2 inhibitory activity”. In addition, the “% Inhibition” value under setting [1] is 4.24% and 12.86%. For the same compound, the “% Inhibition” value under setting [15] came out at 17.49%. Besides, the inhibition at 0.00152416 µM under setting [2] amounted to 14%. For the same compound, under setting [3], the “% Inhibition” value worked out at 28.06% and the inhibition at 0.00457247 µM worked out at 27.4%. The “% Inhibition” value under setting [16] is given as 45.74%. In addition, the inhibition at 0.0137174 µM under setting [4] stood at 44.6%. The “% Inhibition” value under setting [17] is listed as 67.90%. Moreover, the inhibition at 0.0411523 µM under setting [5] came to 69.6%. For the same compound, under setting [6], the “% Inhibition” value is on record as 84.14%. In addition, the inhibition at 0.123457 µM under setting [7] stood at 84.5%. Besides, the “% Inhibition” value under setting [18] turned out to be 92.83%. In addition, under setting [8], the inhibition at 0.37037 µM was determined as 93.3%. Moreover, under setting [9], the “% Inhibition” value was 95.77%. For the same compound, the inhibition at 1.11111 µM under setting [10] is 98%. Moreover, the “% Inhibition” value under setting [11] is given as 95.36%. The inhibition at 3.33333 µM under setting [12] was 94.3%. Besides, the “% Inhibition” value under setting [13] was found to be 95.58%. Further, under setting [14], the inhibition at 10 µM is 96.2%.

As to `CCN1CCN(C(=O)c2ccc(Nc3ncc(F)c(-c4ccc5nc(N(C)C)sc5c4)n3)nc2)CC1` [Compound 26 (YK-2-69)], the “% Inhibition” value was 2.89% and 7.10% (DYRK2 kinase, Conc. 0.000762079 µM, duplicate values); 21.49% (DYRK2 kinase, Conc. 0.00228624 µM, duplicate values); 46.13% (DYRK2 kinase, Conc. 0.00685871 µM, duplicate values); 59.65% (DYRK2 kinase, Conc. 0.0205761 µM, duplicate values); 82.13% (DYRK2 kinase, Conc. 0.0617284 µM, duplicate values); 93.18% (DYRK2 kinase, Conc. 0.185185 µM, duplicate values). Further, the “% Inhibition” value worked out at 96.77% (DYRK2 kinase, Conc. 0.555556 µM, duplicate values); 98.11% under setting [19]; 97.16% (DYRK2 kinase, Conc. 5 µM, duplicate values). For the same compound, where the note is “DYRK2 kinase, Conc. 0.00228624 µM, duplicate values, read-out: % Inhibition”, the inhibition at 0.00228624 µM amounted to 26.1%. Also, the inhibition at 0.00685871 µM (DYRK2 kinase, Conc. 0.00685871 µM, duplicate values, read-out: % Inhibition) amounted to 53%. Moreover, under “DYRK2 kinase, Conc. 0.0205761 µM, duplicate values, read-out: % Inhibition”, the inhibition at 0.0205761 µM was 65.2%. Also, the inhibition at 0.0617284 µM (DYRK2 kinase, Conc. 0.0617284 µM, duplicate values, read-out: % Inhibition) came out at 82.1%. Besides, where the note is “DYRK2 kinase, Conc. 0.185185 µM, duplicate values, read-out: % Inhibition”, the inhibition at 0.185185 µM worked out at 94.1%. Further, the inhibition at 0.555556 µM (DYRK2 kinase, Conc. 0.555556 µM, duplicate values, read-out: % Inhibition) was determined as 96.8%. Under setting [19], this compound had an inhibition at 1.66667 µM of 97.3%. The inhibition at 5 µM (DYRK2 kinase, Conc. 5 µM, duplicate values, read-out: % Inhibition) was determined as 97.8%.

As for `CCN1CCN(C(=O)c2ccc(Nc3nc(-c4ccc5nc(N(C)C)sc5c4)c4sccc4n3)nc2)CC1` [Compound 27], the “DYRK2 inhibitory activity (in words)” value is given as “no inhibition”. Also, the “% Inhibition” value under setting [1] was -2.37% and 0.19%. In addition, the “% Inhibition” value under setting [15] turned out to be 1.48%. Besides, the inhibition at 0.00152416 µM under setting [2] is 1.6%. Further, the “% Inhibition” value under setting [3] is 3.31% and -4.82%. Besides, the “% Inhibition” value under setting [16] was 5.42% and 2.62%. In addition, under setting [17], the “% Inhibition” value is -2.71% and -6.99%. Under setting [6], the “% Inhibition” value was 2.56% and -2.91%. For the same compound, under setting [18], the “% Inhibition” value is 3.14% and 0.34%. Under setting [9], the “% Inhibition” value was -1.20% and -1.05%. For the same compound, under setting [11], the “% Inhibition” value came out at 2.76%. Also, the inhibition at 3.33333 µM under setting [12] is 2.35%. The “% Inhibition” value under setting [13] is 7.55%. Further, the inhibition at 10 µM under setting [14] turned out to be 7.66%.
